Like-named read-outs stand apart in the source and are kept apart here.
What was measured:
[1] = log P by reversed-phase HPLC analogously to OECD Guideline 117; assay type: physicochemical
Procedure: The log P values were determined analogously to OECD Guideline 117 (EC Directive 92/69/EEC) by HPLC (high-performance liquid chromatography) using reversed-phase columns (C 18), by the following methods:
[a] LC-MS determination in the acidic range is effected at pH 2.7 with 0.1% aqueous formic acid and acetonitrile (containing 0.1% formic acid) as eluents with a linear gradient from 10% acetonitrile to 95% acetonitrile; or with 0.025% aqueous trifluoroacetic acid and acetonitrile (containing 0.025% trifluoroacetic acid) as eluents with a linear gradient from 50% acetonitrile to 80% acetonitrile.
[b] LC-MS determination in the neutral range is effected at pH 7.8 with 0.001 molar aqueous ammonium hydrogencarbonate solution and acetonitrile as eluents; linear gradient from 10% acetonitrile to 95% acetonitrile.
Calibration is effected with solutions of a homologous series of unbranched alkan-2-ones (having 3 to 16 carbon atoms) with known log P values (log P values determined on the basis of the retention times by linear interpolation between two successive alkanones).

[2] = system: greenhouse red spider mite (Tetranychus urticae); experiment: Tetranychus urticae spray test, OP-resistant (bean leaf discs); assay type: in vivo; settings: after 6 days; for pest or weed control at 500 g/ha: Tetranychus urticae, foliar, 144 h, read-out: efficacy (spider mites killed)
Procedure: Tetranychus urticae—Spray Test, OP-Resistant
Solvent: 78.0 parts by weight of acetone • • 1.5 parts by weight of dimethylformamide
Emulsifier: alkylaryl polyglycol ether
To produce an appropriate active ingredient formulation, 1 part by weight of active ingredient is dissolved using the specified parts by weight of solvent and made up with water containing an emulsifier concentration of 1000 ppm until the desired concentration is attained. To produce further test concentrations, the preparation is diluted with emulsifier-containing water.
Discs of bean leaves (Phaseolus vulgaris) infested by all stages of the greenhouse red spider mite (Tetranychus urticae) are sprayed with an active ingredient formulation of the desired concentration.
After 6 days, the efficacy in % is determined. 100% means that all the spider mites have been killed; 0% means that none of the spider mites have been killed.

[3] = [a] acidic range, pH 2.7, formic acid (or trifluoroacetic acid)/acetonitrile
[4] = [b] neutral range, pH 7.8, ammonium hydrogencarbonate/acetonitrile
[5] = reversed-phase C18 HPLC column, pH 2.7, running text, [a] acidic range, pH 2.7, read-out: log P[a]
[6] = reversed-phase C18 HPLC column, pH 2.7, table column, [a] acidic range, pH 2.7, formic acid (or trifluoroacetic acid)/acetonitrile, read-out: LogP[a]
[7] = reversed-phase C18 HPLC column, pH 7.8, running text, [b] neutral range, pH 7.8, read-out: log P[b]
[8] = reversed-phase C18 HPLC column, pH 7.8, table column, [b] neutral range, pH 7.8, ammonium hydrogencarbonate/acetonitrile, read-out: LogP[b]
[9] = reversed-phase C18 HPLC column, pH 2.7, running text, HCOOH, read-out: log P(HCOOH)

Compound	LogP[a] [1, 3]	LogP[b] [1, 4]	efficacy (spider mites killed) ([2]; application rate 500 g/ha) [%]	further results
CCn1c(=O)cnn(-c2cc(SCC(F)(F)F)c(C)cc2C)c1=O [compound 33]	3.45	3.38	100	–
Cc1cc(F)c(-n2ncc(=O)n(Cc3ccccc3)c2=O)cc1SCC(F)(F)F [compound 42]	4.04	3.93	100	–
Cc1cc(C)c(-n2ncc(=O)n(CC(F)(F)F)c2=O)cc1SCC(F)(F)F [Ex. No. 7]	3.74	–	90	–
Cc1cc(F)c(-n2ncc(=O)[nH]c2=O)cc1[S+]([O-])CC(F)(F)F (stereo not shown) [Ex. No. 1, 2-{2-Fluoro-4-methyl-5-[(2,2,2-trifluoroethyl)sulphinyl]phenyl}-1,2,4-triazine-3,5(2H,4H)-dione]	–	–	–	chromatographic logP [1, 5]: 1.58; chromatographic logP [1, 6]: 1.58
Cc1cc(C)c(-n2ncc(=O)n(CC#N)c2=O)cc1SCC(F)(F)F [compound 40]	3.1	3.05	100	–
Cc1ccc(-n2ccc(=O)[nH]c2=O)cc1SCC(F)(F)F [compound 88]	1.99	2.05	90	–
Cc1ccc(-n2ncc(=O)n(C)c2=O)cc1[S+]([O-])CC(F)(F)F (racemic) [compound 24]	1.84	1.83	100	–
Cc1cc(C)c([S+]([O-])CC(F)(F)F)cc1-n1ncc(=O)n(CC2CC2)c1=O (racemic) [compound 37]	2.77	2.73	100	–
Cc1cc(F)c(-n2ccc(=O)n(CC(C)C)c2=O)cc1SCC(F)(F)F [compound 81]	3.56	3.62	90	–
Cc1cc(C)c(-n2ccc(=O)n(CC(F)(F)F)c2=O)cc1SCC(F)(F)F [compound 94]	3.39	3.49	100	–
1-{2,4-Diethyl-5-[(2,2,2-trifluoroethyl)sulphinyl]phenyl}-6-methyl-2,4-dioxo-1,2,3,4-tetrahydropyrimidine-5-carbonitrile	–	–	–	log P[a] ([1]; pH 2.7): 3.16
Cc1cc(C)c(-n2ncc(=O)n(C(C)C)c2=O)cc1SCC(F)(F)F [compound 36]	3.88	3.81	100	–
Cc1cc(C)c(-n2ncc(=O)n(C)c2=O)cc1SCC(F)(F)F [Ex. No. 5]	3.08	–	100	–
Cc1cc(C)c([S+]([O-])CC(F)(F)F)cc1-n1ncc(=O)n(CC(F)(F)F)c1=O (single isomer, unassigned) [compound 46]	2.72	2.66	–	–
Cc1cc(C)c(-n2ncc(=O)n(CC3CC3)c2=O)cc1SCC(F)(F)F [compound 34]	3.94	3.87	100	–
Cc1cc(F)c(-n2ncc(=O)n(C(C)C)c2=O)cc1SCC(F)(F)F [compound 26]	3.73	3.67	100	–
Cc1cc(F)c(-n2nc(C(=O)O)c(=O)[nH]c2=O)cc1SCC(F)(F)F [2-{2-Fluoro-4-methyl-5-[(2,2,2-trifluoroethyl)sulphanyl]phenyl}-3,5-dioxo-2,3,4,5-tetrahydro-1,2,4-triazine-6-carboxylic acid]	–	–	–	chromatographic logP [1, 5]: 1.79
Cc1cc(C)c([S+]([O-])CC(F)(F)F)cc1-n1ncc(=O)n(Cc2ccccc2)c1=O (racemic) [compound 52]	3.06	3.00	–	efficacy (spider mites killed) ([2]; application rate 100 g/ha): 90%

Compound	LogP[a] [1, 3]	LogP[b] [1, 4]	efficacy (spider mites killed) ([2]; application rate 500 g/ha) [%]	further results
CCCn1c(=O)ccn(-c2cc([S+]([O-])CC(F)(F)F)c(C)cc2F)c1=O (stereo not shown) [compound 66]	2.17	2.25	90	–
CCOC(=O)NC(=O)c1nn(-c2cc(SCC(F)(F)F)c(C)cc2F)c(=O)[nH]c1=O [Ethyl [(2-{2-fluoro-4-methyl-5-[(2,2,2-trifluoroethyl)sulphanyl]phenyl}-3,5-dioxo-2,3,4,5-tetrahydro-1,2,4-triazin-6-yl)carbonyl]arbamate]	–	–	–	chromatographic logP ([1]; [a] acidic range, pH 2.7, read-out: log P[a]): 2.5
CCc1cc(CC)c([S+]([O-])CC(F)(F)F)cc1-n1c(C)c(C#N)c(=O)[nH]c1=O (stereo not shown) [Ex. No. 18, 1-{2,4-Diethyl-5-[(2,2,2-trifluoroethyl)sulphinyl]phenyl}-6-methyl-2,4-dioxo-1,2,3,4-tetrahydropyrimidine-5-carbonitrile]	–	–	–	chromatographic logP [1, 5]: 2.15; chromatographic logP [1, 6]: 2.15; chromatographic logP [1, 7]: 1.55; chromatographic logP [1, 8]: 1.55; pest or weed control at 500 g/ha ([2]; application rate 500 g/ha): 90%
Cc1cc(C)c([S+]([O-])CC(F)(F)F)cc1-n1ccc(=O)[nH]c1=O (stereo not shown) [compound 99]	1.35	1.38	100	–
Cc1cc(F)c(-n2c(C)c(C#N)c(=O)[nH]c2=O)cc1[S+]([O-])CC(F)(F)F (stereo not shown) [Ex. No. 16, 1-{2-Fluoro-4-methyl-5-[(2,2,2-trifluoroethyl)sulphinyl]phenyl}-6-methyl-2,4-dioxo-1,2,3,4-tetrahydropyrimidine-5-carbonitrile]	–	–	–	chromatographic logP [1, 6]: 1.58; chromatographic logP [1, 8]: 0.88; pest or weed control at 500 g/ha ([2]; application rate 500 g/ha): 90%
CCn1c(=O)cnn(-c2cc([S+]([O-])CC(F)(F)F)c(C)cc2C)c1=O (racemic) [compound 35]	2.31	2.27	100	–
Cc1ccc(-n2ncc(=O)n(C)c2=O)cc1SCC(F)(F)F [compound 23]	2.9	2.83	100	–
Cc1cc(F)c(-n2ccc(=O)[nH]c2=O)cc1SCC(F)(F)F [Ex. No. 55, 1-{2-Fluoro-4-methyl-5-[(2,2,2-trifluoroethyl)sulphanyl]phenyl}pyrimidine-2,4(1H,3H)-dione]	–	–	–	chromatographic logP [1, 5]: 2.13; chromatographic logP [1, 6]: 2.06; chromatographic logP [1, 7]: 2.06; chromatographic logP [1, 8]: 2.13; pest or weed control at 500 g/ha ([2]; application rate 500 g/ha): 100%
Cc1cc(F)c(-n2c(C)c(C#N)c(=O)[nH]c2=O)cc1SCC(F)(F)F [Ex. No. 17, 1-{2-Fluoro-4-methyl-5-[(2,2,2-trifluoroethyl)sulphanyl]phenyl}-6-methyl-2,4-dioxo-1,2,3,4-tetrahydropyrimidine-5-carbonitrile]	–	–	–	chromatographic logP [1, 5]: 2.43; chromatographic logP [1, 6]: 2.43; pest or weed control at 500 g/ha ([2]; application rate 500 g/ha): 90%
Cc1cc(F)c(-n2ncc(=O)n(C)c2=O)cc1[S+]([O-])CC(F)(F)F (single isomer, unassigned; (-)) [Ex. No. 28, (−)-2-[2-fluoro-4-methyl-5-(2,2,2-trifluoroethylsulphinyl)phenyl]-4-methyl-1,2,4-triazine-3,5-dione]	–	–	–	chromatographic logP [1, 6]: 1.95; chromatographic logP [1, 8]: 1.9
CCO/C=C/C(=O)NC(=O)Nc1cc(SCC(F)(F)F)c(C)cc1F [(2E)-3-Ethoxy-N-({2-fluoro-4-methyl-5-[(2,2,2-trifluoroethyl)sulphanyl]phenyl}carbamoyl)-acrylamide]	–	–	–	chromatographic logP [1, 5]: 3.78; chromatographic logP [1, 7]: 3.7
CCOC(=O)c1cn(-c2cc(SCC(F)(F)F)c(C)cc2F)c(=O)n(C2CC2)c1=O [Ethyl 3-cyclopropyl-1-{2-fluoro-4-methyl-5-[(2,2,2-trifluoroethyl)sulphanyl]phenyl}-2,4-dioxo-1,2,3,4-tetrahydropyrimidine-5-carboxylate]	–	–	–	chromatographic logP [1, 5]: 3.07; chromatographic logP [1, 7]: 3.02
CCn1c(=O)ccn(-c2ccc(C)c(SCC(F)(F)F)c2)c1=O [compound 83]	2.74	2.81	–	–
CCc1cc(CC)c(SCC(F)(F)F)cc1NC(C)=O [N-{2,4-Diethyl-5-[(2,2,2-trifluoroethyl)sulphanyl]phenyl}acetamide]	–	–	–	chromatographic logP [1, 9]: 3.07
CCc1cc(CC)c(SSc2cc(NC(C)=O)c(CC)cc2CC)cc1NC(C)=O [N,N′-[Disulphanediylbis(4,6-diethylbenzene-3,1-diyl)]diacetamide]	–	–	–	chromatographic logP [1, 9]: 4.02
Cc1cc(F)c(-n2ncc(=O)[nH]c2=O)cc1SCC(F)(F)F [2-{2-Fluoro-4-methyl-5-[(2,2,2-trifluoroethyl)sulphanyl]phenyl}-1,2,4-triazine-3,5(2H,4H)-dione]	–	–	–	chromatographic logP [1, 5]: 2.45
Cc1cc(F)c(-n2ncc(=O)n(CC(F)(F)F)c2=O)cc1[S+]([O-])CC(F)(F)F (single isomer, unassigned) [compound 51]	2.62	2.57	–	–

Reference: patent US9783509B2, “Six-membered C-N-linked aryl sulfide derivatives and aryl sulfoxide derivatives as pest conrol agents” (BAYER CROPSCIENCE AKTIENGESELLSCHAFT, priority 2013, dated 2017)
